The record followed here is patent publication US12162878B2 (HINOVA PHARMACEUTICALS INC., priority 2018, dated 2024).

For one assay, the target named is BRD2(1,2) (Homo sapiens (Human), UniProt P25440). Kind of assay: AlphaScreen binding of compounds on BRD2 (D1+D2). Conditions: read-out: IC50 against BRD2(1,2). In general terms: In Alpha technology, singlet oxygen from a donor bead excites a nearby acceptor bead.
The next assay deals with CWR22RV1 cells. As to the kind of experiment: Inhibition of proliferation of CWR22RV1 cells (CCK-8). Conditions: Homo sapiens, CWR22Rv1, 144 h, 6 days. The format is cell-based, human. An outline of the steps:
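Cells seeded at 1500/well, cultured overnight, then exposed to compounds in 3-fold dilutions (9 concentrations from 10 μM top final, 0.1% DMSO) for 6 days at 37 °C. Viability read by CCK-8 absorbance at 450 nm after 2.5 h; IC50 from dose-response inhibition fit.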

The target in the next assay is BRDT(D1) (Homo sapiens (Human), UniProt Q58F21). Kind of assay: HTRF binding of compounds on BRDT (D1). Conditions: read-out: IC50 against BRDT(D1). On the technique in general: Time-resolved FRET reads energy transfer from a long-lived donor to a nearby acceptor.

BRD2(1,2), sequence (P25440 65-459): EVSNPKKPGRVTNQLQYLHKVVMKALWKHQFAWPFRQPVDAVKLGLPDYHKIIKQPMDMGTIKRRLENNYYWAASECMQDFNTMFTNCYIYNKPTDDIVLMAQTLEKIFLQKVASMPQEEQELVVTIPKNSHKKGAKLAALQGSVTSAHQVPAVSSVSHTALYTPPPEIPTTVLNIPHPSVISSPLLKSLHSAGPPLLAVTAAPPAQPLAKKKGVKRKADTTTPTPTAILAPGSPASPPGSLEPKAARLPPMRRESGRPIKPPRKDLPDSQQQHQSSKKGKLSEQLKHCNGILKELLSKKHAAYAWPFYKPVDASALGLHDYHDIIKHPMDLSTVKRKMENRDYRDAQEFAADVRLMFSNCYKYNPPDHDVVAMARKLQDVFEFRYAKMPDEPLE

For orientation: IC50 means the concentration that inhibits the measured activity by half. Consider `[2H]C([2H])([2H])n1cc(-c2cc(NS(=O)(=O)CC)ccc2N2CCC3(CC2)CC3)c2cc[nH]c2c1=O` [Compound 41], for which the values for the IC50 at BRD2(1,2), with CWR22RV1 cells and on BRDT(D1) were 2.3 nM, 5 nM and 30 nM, respectively.

In the assay with CWR22RV1 cells, `[2H]C([2H])([2H])n1cc(-c2cc(S(=O)(=O)CC)ccc2N2CCC3(CC3)C2)c2cc[nH]c2c1=O` [Compound 55, 4-(5(ethylsulfonyl)-2-(5-aza-spiro[2.4]heptan-5-yl)phenyl)-6-trideuteromethyl-1H-pyrrolo[2,3-c]pyridin-7(6H)-one] gave a half-maximal inhibitory concentration (IC50) of 21 nM.

Regarding `[2H]C([2H])([2H])n1cc(-c2cc(S(C)(=O)=O)ccc2N2CCC3(CC2)CC3(F)F)c2cc[nH]c2c1=O` [Compound 184, 4-(2-(1,1-difluoro-6-aza-spiro[2.5]octan-6-yl)-5-(methylsulfonyl)phenyl)-6-trideuteromethyl-1H-pyrrolo[2,3-c]pyridin-7(6H)-one], the values for the IC50 on BRD2(1,2), in the assay on CWR22RV1 cells and on BRDT(D1) were 2 nM, 8.1 nM and 19 nM, respectively.

With `[2H]C([2H])([2H])n1cc(-c2cc(S(C)(=O)=O)c(F)cc2N2CCC3(CC2)CC3(F)F)c2cc[nH]c2c1=O` [Compound 219, 4-(2-(1,1-difluoro-6-aza-spiro[2.5]octan-6-yl)-4-fluoro-5-(methylsulfonyl)phenyl)-6-trideuteromethyl-1H-pyrrolo[2,3-c]pyridin-7(6H)-one], the IC50 at BRD2(1,2) was found to be 1.8 nM; with CWR22RV1 cells, 7.1 nM; on BRDT(D1), 40 nM.
